Values quoted from earlier work as cited in patent US20190249218A1, “Method, Medium and Kit for Detecting Multiple Aminoglycoside Resistance Including 16S rRNA Methylase Mediated Resistance in Gram-Negative Bacteria” (priority 2016, published 2019).

What was measured:
[1] = tested on: aminoglycoside modifying enzymes such as the nucleotidyl, acetyl and phosphoryl enzymes; settings: reference (12); cited from earlier work
[2] = tested on: 16S rRNA methylase producers; settings: reference (13); cited from earlier work

In the case of `CN[C@@H]1[C@@H](O)[C@@H](O[C@@H]2[C@@H](O)[C@H](O[C@H]3OC(CNCCO)=CC[C@H]3N)[C@@H](N)C[C@H]2NC(=O)[C@@H](O)CCN)OC[C@]1(C)O` [Plazomicin], the “activity against aminoglycoside modifying enzymes” value [1] is given as “active” and the “activity against 16S rRNA methylase producers” value [2] is given as “inactive”.
